The values below come from patent publication US20070167452A1, “Therapeutic amide derivatives” (PFIZER, INC., priority 2004, published 2007).

Some results are limits rather than exact numbers.

One series concerns the target Human HERG (Homo sapiens, UniProt Q12809). Description: Human Dofetilide Binding Assay.
For the next series, the target named is T1, NR2B receptor (Rattus norvegicus, UniProt P35439+Q00960).
T1 construct: Membranes were prepared by homogenization of forebrain of male CD rats; from tissue; host or cells: forebrain of male CD rats (P2 membrane)
The series can be described thus: NR2B Binding Assay. As to conditions: forebrain P2 membranes of male CD rats; 5 nM [3H] NR2B ligand. The procedure:
The activity of the cycloalkylene amide compounds of the present invention, as NR2B antagonists, is determined by their ability to inhibit the binding of NR2B subunit at its receptor sites employing radioactive ligands.
The NR^2B antagonist activity of the cycloalkylene amide compounds is evaluated by using the standard assay procedure described in, for example, J. Pharmacol., 331, pp 117-126, 1997. This method essentially involves determining the concentration of the individual compound required to reduce the amount of radiolabelled NR2B ligands by 50% at their receptor sites, thereby affording characteristic IC50 values for each compound tested. More specifically, the assay is carried out as follows.
Membranes were prepared by homogenization of forebrain of male CD rats weighing between 170˜190 g by using glass-Teflon homogenizer in 0.32 M sucrose at 4° C. The crude nuclear pellet was removed by centrifugation at 1000×g for 10 min, and the supernatant centrifuged at 17000×g for 25 min. The resulting pellet was resuspended in 5 mM Tris acetate pH 7.4 at 4° C. for 10 min to lyse cellular particles and again centrifuged at 17000×g. The resulting pellet (P2 membrane) was washed twice in Tris acetate, resuspended at 5.5 mg protein/ml and stored at −20° C. until use. All the manipulation was done on ice, and stock solution and equipment were kept on ice at all time.
For the saturation assay, receptor saturation was determined by incubating [^3H]-1-[(1S*,2S*)-2-hydroxy-2-(4-hydroxyphenyl)-1-methylethyl]-4-phenylpiperidin-4-ol and 50 μg protein of P2 membrane for 60 minutes at room temperature in a final 100 μl of incubation buffer (50 mM Tris HCl, pH7.4). Total and non-specific bindings (in the presence of 10 μM of unlabeled 1-[(1S*,2S*)-2-hydroxy-2-(4-hydroxyphenyl)-1-methylethyl]-4-phenylpiperidin-4-ol) were determined in a range of [^3H]-1-[(1S*,2S*)-2-hydroxy-2-(4-hydroxyphenyl)-1-methylethyl]-4-phenylpiperidin-4-ol concentrations (0.625 nM to 60 nM).
For the competition assay, test compounds were incubated in duplicate with 5 nM [^3H]-1-[(1S*,2S*)-2-hydroxy-2-(4-hydroxyphenyl)-1-methylethyl]-4-phenylpiperidin-4-ol and 50 μg protein of P2 membrane for 60 minutes at room temperature in a final 100 μl of 50 mM Tris HCl buffer (pH7.4). Nonspecific binding was determined by 10 μM of unlabeled 1-[(1S*,2S*)-2-hydroxy-2-(4-hydroxyphenyl)-1-methylethyl]-4-phenylpiperidin-4-ol (25 μl). The saturation derived KD gained in saturation assay was used for all Ki calculations.
All incubations were terminated by rapid vacuum filtration over 0.2% polyethyleneimine soaked Whatman GF/B glass fibre filter paper using a SKATRON cell harvester followed by three washes with ice-cold filtration buffer (5 mM Tris HCl, pH 7.4.). Receptor-bound radioactivity was quantified by liquid scintillation counting using Packard LS counter. Competition assays were performed by counting Wallac GF/B filters on Betaplate scintillation counter (Wallac).

T1 sequence (Q00960 27-1482, other chains not shown): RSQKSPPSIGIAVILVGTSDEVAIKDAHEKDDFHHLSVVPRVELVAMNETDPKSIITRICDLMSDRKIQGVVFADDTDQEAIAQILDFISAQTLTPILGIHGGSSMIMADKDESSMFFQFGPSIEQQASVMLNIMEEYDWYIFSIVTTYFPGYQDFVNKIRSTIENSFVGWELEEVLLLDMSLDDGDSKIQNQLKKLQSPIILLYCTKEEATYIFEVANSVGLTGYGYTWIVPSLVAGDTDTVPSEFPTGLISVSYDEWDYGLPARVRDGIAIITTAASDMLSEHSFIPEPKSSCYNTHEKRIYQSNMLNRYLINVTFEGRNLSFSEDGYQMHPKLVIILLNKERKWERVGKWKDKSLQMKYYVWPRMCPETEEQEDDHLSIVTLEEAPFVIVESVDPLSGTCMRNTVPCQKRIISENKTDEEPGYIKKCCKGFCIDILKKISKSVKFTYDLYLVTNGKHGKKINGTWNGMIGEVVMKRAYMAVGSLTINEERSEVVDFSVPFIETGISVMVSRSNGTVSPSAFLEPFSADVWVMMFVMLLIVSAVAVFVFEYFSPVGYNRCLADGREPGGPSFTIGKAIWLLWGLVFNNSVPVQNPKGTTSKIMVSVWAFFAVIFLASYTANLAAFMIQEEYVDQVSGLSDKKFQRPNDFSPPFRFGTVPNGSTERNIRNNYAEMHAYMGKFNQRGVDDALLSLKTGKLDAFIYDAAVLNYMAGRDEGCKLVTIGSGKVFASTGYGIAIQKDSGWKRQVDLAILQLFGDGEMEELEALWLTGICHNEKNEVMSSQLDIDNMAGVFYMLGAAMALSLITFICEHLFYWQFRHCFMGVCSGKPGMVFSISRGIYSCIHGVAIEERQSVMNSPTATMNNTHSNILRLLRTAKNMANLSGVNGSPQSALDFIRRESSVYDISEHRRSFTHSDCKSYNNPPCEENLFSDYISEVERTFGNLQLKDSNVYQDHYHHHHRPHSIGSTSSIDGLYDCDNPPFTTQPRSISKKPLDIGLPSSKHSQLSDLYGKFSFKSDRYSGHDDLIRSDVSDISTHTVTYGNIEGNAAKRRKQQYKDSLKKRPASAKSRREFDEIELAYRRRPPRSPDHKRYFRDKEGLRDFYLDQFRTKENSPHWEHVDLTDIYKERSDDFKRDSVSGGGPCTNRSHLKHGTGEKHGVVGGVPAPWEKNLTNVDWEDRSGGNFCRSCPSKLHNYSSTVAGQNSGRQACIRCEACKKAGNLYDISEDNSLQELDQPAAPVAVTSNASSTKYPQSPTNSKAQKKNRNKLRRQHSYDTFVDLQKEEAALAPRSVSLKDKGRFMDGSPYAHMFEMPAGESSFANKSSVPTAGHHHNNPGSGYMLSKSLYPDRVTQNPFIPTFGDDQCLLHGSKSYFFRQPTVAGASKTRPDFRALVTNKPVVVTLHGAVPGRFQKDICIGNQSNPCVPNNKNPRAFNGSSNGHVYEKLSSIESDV
Chain of Human HERG (Q12809 whole entry): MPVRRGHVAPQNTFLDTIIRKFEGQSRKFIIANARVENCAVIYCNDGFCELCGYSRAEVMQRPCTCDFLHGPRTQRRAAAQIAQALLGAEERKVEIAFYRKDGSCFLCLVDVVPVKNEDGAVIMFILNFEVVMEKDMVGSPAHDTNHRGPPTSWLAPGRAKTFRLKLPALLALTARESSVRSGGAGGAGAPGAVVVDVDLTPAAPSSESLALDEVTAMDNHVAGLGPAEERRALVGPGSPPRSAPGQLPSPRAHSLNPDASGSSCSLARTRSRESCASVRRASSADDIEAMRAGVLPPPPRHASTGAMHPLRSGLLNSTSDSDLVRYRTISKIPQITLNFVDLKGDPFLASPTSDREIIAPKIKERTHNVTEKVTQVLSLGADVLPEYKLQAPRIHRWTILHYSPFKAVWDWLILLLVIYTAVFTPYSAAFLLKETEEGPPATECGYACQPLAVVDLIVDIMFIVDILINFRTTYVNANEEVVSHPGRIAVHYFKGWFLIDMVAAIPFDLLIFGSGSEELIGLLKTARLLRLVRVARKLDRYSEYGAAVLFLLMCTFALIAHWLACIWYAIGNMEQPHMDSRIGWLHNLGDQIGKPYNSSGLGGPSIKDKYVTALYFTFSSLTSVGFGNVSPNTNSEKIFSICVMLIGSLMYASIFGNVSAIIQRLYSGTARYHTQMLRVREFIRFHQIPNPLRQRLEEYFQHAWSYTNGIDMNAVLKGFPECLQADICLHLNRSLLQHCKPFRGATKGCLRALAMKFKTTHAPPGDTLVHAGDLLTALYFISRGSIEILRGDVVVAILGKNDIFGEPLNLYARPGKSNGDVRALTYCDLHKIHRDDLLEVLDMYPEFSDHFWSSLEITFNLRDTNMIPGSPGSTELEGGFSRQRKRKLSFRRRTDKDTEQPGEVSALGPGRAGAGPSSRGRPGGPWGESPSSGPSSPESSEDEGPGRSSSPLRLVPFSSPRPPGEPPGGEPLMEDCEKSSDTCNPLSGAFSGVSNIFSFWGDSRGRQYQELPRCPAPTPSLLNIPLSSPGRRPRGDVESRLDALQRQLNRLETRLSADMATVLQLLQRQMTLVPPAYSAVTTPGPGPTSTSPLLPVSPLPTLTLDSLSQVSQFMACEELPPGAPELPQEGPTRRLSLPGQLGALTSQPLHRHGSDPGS
Description for Human HERG: Human HERG transfected HEK293S cells were prepared and grown in-house. The collected cells were suspended in 50 mM Tris-HCl (pH 7.4 at 4° C.) and homogenized using a hand held Polytron PT 1200 disruptor set at full power for 20 sec on ice. The homogenates were centrifuged at 48,000×g at 4° C. for 20 min. The pellets were then resuspended, homogenized, and centrifuged once more in the same manner. The final pellets were resuspended in an appropriate volume of 50 mM Tris-HCl, 10 mM KCl, 1 mM MgCl2 (pH 7.4 at 4° C.), homogenized, aliquoted and stored at −80° C. until use. An aliquot of membrane fractions was used for protein concentration determination using BCA protein assay kit (PIERCE) and ARVOsx plate reader (Wallac).
Binding assays were conducted in a total volume of 200 μl in 96-well plates. Twenty μl of test compounds were incubated with 20 μl of [^3H]-dofetilide (Amersham, final 5 nM) and 160 μl of membrane homogenate (25 μg protein) for 60 minutes at room temperature. Nonspecific binding was determined by 10 μM dofetilide at the final concentration. Incubation was terminated by rapid vacuum filtration over 0.5% presoaked GF/B Betaplate filter using Skatron cell harvester with 50 mM Tris-HCl, 10 mM KCl, 1 mM MgCl2, pH 7.4 at 4° C. The filters were dried, put into sample bags and filled with Betaplate Scint. Radioactivity bound to filter was counted with Wallac Betaplate counter.

Take `O=C(NC[C@@H]1CCC[C@H](OCCc2ccccc2)C1)c1cn[nH]c1` (single isomer, unassigned) [Example 116]: the IC50 was more than 100 µM on Human HERG and 0.0259 µM on NR2B receptor.

With `O=C(NC[C@]1(O)CC[C@H](OCc2ccccc2)CC1)c1ccc(O)cc1` [Example 30, N-{[trans-4-(Benzyloxy)-1-hydroxycyclohexyl]methyl}-4-hydroxybenzamide], the half-inhibitory concentration (IC50) at Human HERG was more than 100 µM; at NR2B receptor it was 0.0236 µM.

For the compound `O=C(NC[C@]1(O)CC[C@H](Oc2ccc(Cl)cc2)CC1)c1ccc(O)c(F)c1` [Example 33, N-{[trans-4-(4-Chlorophenoxy)-1-hydroxycyclohexyl]methyl}-3-fluoro-4-hydroxybenzamide], the IC50 on Human HERG came to 95.6 µM; at NR2B receptor it was 0.0193 µM.

On to `O=C(NC[C@H]1CC[C@@H](COc2ccccc2)CO1)c1ccc(O)cc1` [Example 35, (+)-4-Hydroxy-N-{[5S-(phenoxymethyl)tetrahydro-2H-pyran-2S-yl]methyl}benzamide], for which the IC50 is 51.6 µM on Human HERG and 0.0209 µM at NR2B receptor.

For `O=C(NC[C@@H]1CC[C@H](COc2ccccc2)CO1)c1ccc(O)cc1` [Example 36, (−)-4-Hydroxy-N-{[5R-(phenoxymethyl)tetrahydro-2H-pyran-2R-yl]methyl}benzamide], the IC50 amounted to 55.2 µM at Human HERG and 0.0075 µM on NR2B receptor.

Consider `O=C(NC[C@H]1CC[C@@H](COCc2ccccc2)CO1)c1ccc(O)cc1` [Example 39, 4-Hydroxy-N-{[5S-(benzyloxymethyl)tetrahydro-2H-pyran-2S-yl]methyl}benzamide], for which the IC50 at Human HERG was more than 100 µM; on NR2B receptor, 0.0082 µM.

With `O=C(NC[C@@H]1CC[C@H](COCc2ccccc2)CO1)c1ccc(O)cc1` [Example 40, 4-Hydroxy-N-{[5R-(benzyloxymethyl)tetrahydro-2H-pyran-2R-yl]methyl}benzamide], the IC50 on Human HERG was more than 100 µM; on NR2B receptor it was 0.0104 µM.

As to `O=C(NC[C@H]1CC[C@@H](COc2ccccc2)OC1)c1ccc(O)cc1` [Example 43, (−)-4-Hydroxy-N-{[(3R,6S)-6-(phenoxymethyl)tetrahydro-2H-pyran-3-yl]methyl}benzamide], the half-inhibitory concentration (IC50) is more than 100 µM on Human HERG and 0.0076 µM on NR2B receptor.

Turning to `O=C(NC[C@]1(O)CC[C@H](COc2ccccc2F)CC1)c1ccc(O)c(F)c1` [Example 65, 3-Fluoro-N-({trans-4-[(2-fluorophenoxy)methyl]-1-hydroxycyclohexyl}methyl)-4-hydroxybenzamide], the half-maximal inhibitory concentration (IC50) on Human HERG is more than 100 µM; on NR2B receptor, 0.01 µM.

For the compound `O=C(NC[C@]1(O)CC[C@H](Cc2ccccc2)CC1)c1ccc(O)cc1` [Example 68, N-[(trans-4-Benzyl-1-hydroxycyclohexyl)methyl]-4-hydroxybenzamide], the values for the IC50 at Human HERG and at NR2B receptor were more than 100 µM and 0.0073 µM, respectively.

On to `O=C(NC[C@H]1CC[C@@H](CCOc2ccccc2)CC1)c1c[nH]nn1` [Example 104, N-{[cis-4-(2-Phenoxyethyl)cyclohexyl]methyl}-1H-1,2,3-triazole-4-carboxamide], for which the melting point worked out at 141.2 °C.

In the case of `O=C(NC[C@H]1CC[C@@H](COc2ccc(F)cc2)CC1)c1cn[nH]c1` [Example 109, N-({cis-4-[(4-Fluorophenoxy)methyl]cyclohexyl}methyl)-1H-pyrazole-4-carboxamide], the melting point stood at 147.1 °C.

In turn, `O=C1CCc2cc(C(=O)NC[C@H]3CC[C@@H](Cc4ccccc4)CC3)ccc2N1` [Example 118, N-[(cis-4-Benzylcyclohexyl)methyl]-2-oxo-1,2,3,4-tetrahydroquinoline-6-carboxamide] had a melting point of 188.5 °C.

Take `O=C(NC[C@H]1CC[C@@H](Cc2ccccc2)CC1)c1ccc2nc(O)ccc2c1` [Example 122, N-[(cis-4-Benzylcyclohexyl)methyl]-2-hydroxyquinoline-6-carboxamide]: the melting point was 236.7 °C.

The IC50 is the concentration that gives 50% inhibition. A word on the melting point: it is the temperature, or range, at which the solid turns liquid.
